Earlier results on two compounds are cited in US20140178456A1, “METHODS AND COMPOSITIONS FOR TREATING TYPE 2 DIABETES AND RELATED CONDITIONS” (priority 2012, published 2014).

Counter-ions that a name gives are not always drawn.

Consider `CCc1ccc(CCOc2ccc(CC3SC(=O)NC3=O)cc2)nc1` (centres unmarked) [pioglitazone], for which, where the note is “oral administration of 30 mg pioglitazone”, the “peak plasma concentration of pioglitazone and its active metabolites” value is reported as “about 146 μg per liter”.

As for `CN(CCOc1ccc(CC2SC(=O)NC2=O)cc1)c1ccccn1` (centres unmarked) [rosiglitazone maleate], for the setting “oral administration of 8 mg rosiglitazone maleate”, the peak plasma concentration result is recorded as “about 46114 per liter”.
